This is an account of results in article PMC8347595, “N-Skatyltryptamines—Dual 5-HT6R/D2R Ligands with Antipsychotic and Procognitive Potential” (Molecules, 2021).

One series has as its system 5-HT6. Details: method as in Dupuis et al. (2008) [31]. The note with it: Figure 8; ref Dupuis et al. (2008) [31]; cited from earlier work.
In the next series the target is 5-HT7R (Homo sapiens, UniProt P34969). As to the kind of experiment: Radioligand binding assay, [3H]-5-CT displacement.
For another series, the target named is 5-HT6R (Homo sapiens, UniProt P50406). The series is described as follows: Radioligand binding assay, [3H]-LSD displacement.
Another series addresses 5-HT2AR (Homo sapiens, UniProt P28223). The series is described as follows: Radioligand binding assay, [3H]-ketanserin displacement. More on the design: host or cells: CHO-K1; membrane preparation. The note with it: Table 1.
The target in series [1] is T1, D2R (Homo sapiens, UniProt P14416). The series is described as follows: Radioligand binding assay, [3H]-raclopride displacement.
For another series, the target named is T2, 5-HT1AR (Homo sapiens, UniProt P08908).
T2 sequence (P08908 1-422): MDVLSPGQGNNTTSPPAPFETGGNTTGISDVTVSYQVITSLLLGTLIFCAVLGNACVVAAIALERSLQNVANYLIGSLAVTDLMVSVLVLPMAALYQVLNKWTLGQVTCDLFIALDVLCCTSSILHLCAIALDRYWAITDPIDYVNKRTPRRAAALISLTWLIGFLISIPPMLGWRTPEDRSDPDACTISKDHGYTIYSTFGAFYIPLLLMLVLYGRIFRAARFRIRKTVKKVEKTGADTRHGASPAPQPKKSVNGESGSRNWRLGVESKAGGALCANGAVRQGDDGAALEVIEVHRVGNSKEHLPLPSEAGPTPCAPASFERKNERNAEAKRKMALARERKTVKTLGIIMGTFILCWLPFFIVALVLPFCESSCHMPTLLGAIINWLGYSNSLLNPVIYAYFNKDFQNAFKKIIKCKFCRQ
As to the kind of experiment: Radioligand binding assay, [3H]-8-OH-DPAT displacement.

In the next series the target is T3, Human Serotonin 5-HT6R (Homo sapiens, UniProt P50406).
T3 construct: host or cells: 1321N1 (frozen recombinant cells)
As to the kind of experiment: 5-HT6R functional assay, antagonistic mode (cAMP induced by 5-CT, 1321N1 cells). The series is classed as cell-based. How it is done: The properties of compounds to inhibit cAMP production induced by a 5-HT6R agonist 5-CT (1000 nM) was evaluated. Compounds were tested in triplicate at eight concentrations (10^−11–10^−4 M). The level of cAMP was measured using frozen recombinant 1321N1 cells expressing the Human Serotonin 5-HT6R (PerkinElmer). Total cAMP was measured using the LANCE cAMP Detection Kit (PerkinElmer), according to the manufacturer’s instructions. For quantification of cAMP levels, 2000 cells/well ([…]) were incubated with a mixture of compounds ([…]) for 30 min at room temperature in a 384-well white opaque microtiter plate. After incubation, the reaction was stopped and cells were lysed by the addition of […] of working solution ([…] ULight-anti-cAMP) for 1 h at room temperature. Time-resolved fluorescence resonance energy transfer (TR-FRET) was detected by an Infinite M1000 Pro (Tecan) using instrument settings from the LANCE cAMP Detection Kit manual. […] The agonistic properties of compounds were determined with an analogous procedure, but without stimulation with 5-CT [10, 36].

In series [2] the target is T1, D2R. As to the kind of experiment: D2R functional assay, antagonist mode (cAMP, HEK293 cells). Details: expressed in transfected cells. It counts as cell-based. How it is done: The supernatant was aspirated, and the cell pellet was resuspended in stimulation buffer (1 × HBSS, 5 mM HEPES, 0.5 mM IBMX, 0.1% BSA).
The functional properties of compounds were evaluated using the LANCE Ultra cAMP Detection Kit (PerkinElmer). D2 receptors in HEK293 cells are coupled to Gi subtype and decreased cAMP production. […] Each compound was tested in triplicate at eight concentrations (10^−11–10^−4 M).
For quantification of cAMP levels, cells (5 µL) were incubated with 5 µL mixture of compounds (tested ligand and forskolin with 100 nM quinpirole for antagonist binding mode) for 30 min at room temperature in 384-well white opaque microtiter plate (PerkinElmer). After incubation, the reaction was stopped and cells were lysed by the addition of 10 µL working solution (5 µL Eu-cAMP and 5 µL ULight-anti-cAMP). The assay plate was incubated for 1 h at room temperature. Time-resolved fluorescence resonance energy transfer (TR-FRET) signal was detected by an Infinite M1000 Pro (Tecan) using instrument settings from the LANCE Ultra cAMP Detection Kit manual.

The conditions of series [3]: 5 h, 200 µM, pH 7.4.
[4] abbreviates: read-out: pKi 5-HT2A (converted).

Where two headings read alike, the source gives them in different places.

On to `O=C1CCc2ccc(OCCCCN3CCN(c4cccc(Cl)c4Cl)CC3)cc2N1` [Aripiprazole], for which the Kb in the series on 5-HT6 is […].

In the case of `CN1CCN(C2=Nc3cc(Cl)ccc3Nc3ccccc32)CC1` [Clozapine], in the series on 5-HT6, the Kb is […].

5-HT6R, sequence (P50406 whole entry): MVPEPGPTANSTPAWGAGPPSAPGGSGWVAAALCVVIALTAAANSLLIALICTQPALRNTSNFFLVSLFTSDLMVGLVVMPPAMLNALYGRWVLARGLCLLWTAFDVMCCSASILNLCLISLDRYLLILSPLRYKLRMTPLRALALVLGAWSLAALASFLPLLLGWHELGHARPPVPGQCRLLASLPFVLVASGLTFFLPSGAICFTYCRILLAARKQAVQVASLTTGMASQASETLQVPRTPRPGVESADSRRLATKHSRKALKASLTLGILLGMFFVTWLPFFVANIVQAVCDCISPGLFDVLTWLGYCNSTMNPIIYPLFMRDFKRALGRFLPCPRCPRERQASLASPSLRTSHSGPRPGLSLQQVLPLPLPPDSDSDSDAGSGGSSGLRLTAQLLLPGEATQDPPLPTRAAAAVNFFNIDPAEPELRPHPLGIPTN
5-HT2AR, sequence (P28223 whole entry): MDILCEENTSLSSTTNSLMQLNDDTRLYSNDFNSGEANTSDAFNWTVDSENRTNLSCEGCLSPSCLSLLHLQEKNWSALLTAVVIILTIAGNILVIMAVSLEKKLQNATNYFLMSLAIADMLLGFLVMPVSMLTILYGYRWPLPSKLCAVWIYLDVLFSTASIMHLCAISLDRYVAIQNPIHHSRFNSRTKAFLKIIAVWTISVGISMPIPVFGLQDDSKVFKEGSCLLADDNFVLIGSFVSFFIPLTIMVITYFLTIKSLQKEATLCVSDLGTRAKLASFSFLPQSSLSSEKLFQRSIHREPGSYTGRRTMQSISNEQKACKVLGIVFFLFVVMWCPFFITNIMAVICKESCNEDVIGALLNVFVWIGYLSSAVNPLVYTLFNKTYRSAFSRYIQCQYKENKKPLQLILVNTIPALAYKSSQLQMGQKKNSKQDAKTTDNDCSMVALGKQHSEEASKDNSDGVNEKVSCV
5-HT7R, sequence (P34969 1-432): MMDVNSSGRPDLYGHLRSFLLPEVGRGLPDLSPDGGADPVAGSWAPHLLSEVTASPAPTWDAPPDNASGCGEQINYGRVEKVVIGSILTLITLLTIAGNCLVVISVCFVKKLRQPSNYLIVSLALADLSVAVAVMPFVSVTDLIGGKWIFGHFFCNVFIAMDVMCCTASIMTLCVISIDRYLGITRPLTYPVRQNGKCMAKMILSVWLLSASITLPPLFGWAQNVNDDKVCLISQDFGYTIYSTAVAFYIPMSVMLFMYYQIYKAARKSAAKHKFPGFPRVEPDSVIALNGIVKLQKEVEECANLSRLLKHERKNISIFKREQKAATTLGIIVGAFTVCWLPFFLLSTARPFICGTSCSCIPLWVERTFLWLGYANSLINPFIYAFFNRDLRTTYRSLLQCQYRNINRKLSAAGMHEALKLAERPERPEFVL
T1 sequence (P14416 whole entry): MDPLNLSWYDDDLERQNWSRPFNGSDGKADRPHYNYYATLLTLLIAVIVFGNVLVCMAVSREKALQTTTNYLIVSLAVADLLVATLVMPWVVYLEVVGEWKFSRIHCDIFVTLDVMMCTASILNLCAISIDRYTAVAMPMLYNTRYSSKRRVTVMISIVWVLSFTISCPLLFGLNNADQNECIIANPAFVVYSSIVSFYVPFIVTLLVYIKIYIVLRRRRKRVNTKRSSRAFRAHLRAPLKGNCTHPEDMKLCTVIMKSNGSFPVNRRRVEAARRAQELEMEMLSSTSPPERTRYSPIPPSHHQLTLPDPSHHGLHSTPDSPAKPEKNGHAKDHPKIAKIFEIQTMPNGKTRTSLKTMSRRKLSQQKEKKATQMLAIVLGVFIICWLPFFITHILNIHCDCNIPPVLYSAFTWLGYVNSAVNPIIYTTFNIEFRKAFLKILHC
T3 sequence (P50406 whole entry): as the sequence (P50406 whole entry) above

With `Cc1ccc2[nH]cc(CCNCc3c[nH]c4ccccc34)c2c1` [Compound 2], the Ki on 5-HT7R was 2950 nM; on 5-HT6R (pKi 5-HT6, Table 1), 129 nM; on 5-HT2AR (setting [4]) it was 562 nM; at D2R [1] (pKi D2, Table 1), > 10000 nM; on 5-HT1AR (pKi 5-HT1A, Table 1), 692 nM.

For `COc1ccc2[nH]cc(CCNCc3c[nH]c4ccccc34)c2c1` [Compound 3], the Ki on 5-HT7R was 562 nM; at 5-HT6R (pKi 5-HT6, Table 1), 117 nM; on 5-HT2AR (pKi 5-HT2A), 83.2 nM; on 5-HT1AR (Ki 5-HT1AR), 156 nM; at 5-HT1AR (pKi 5-HT1A, Table 1), 155 nM. Further, the “pKi D2” value at D2R [1] (Table 1) was 6.49.

Take `Clc1ccc2[nH]cc(CCNCc3c[nH]c4ccccc34)c2c1` [Compound 4]: the Ki was 107 nM on 5-HT6R (pKi 5-HT6, Table 1) and 2450 nM at D2R [1] (pKi D2, Table 1).

As for `Fc1cccc2c(CCNCc3c[nH]c4ccccc34)c[nH]c12` [Compound 6], the Ki is 10200 nM on 5-HT7R; 168 nM at 5-HT6R (Ki 5-HT6, Figure 8); 170 nM on 5-HT6R (pKi 5-HT6, Table 1); 380 nM on 5-HT2AR (setting [4]); 2950 nM at D2R [1] (pKi D2, Table 1); 2750 nM on 5-HT1AR (pKi 5-HT1A, Table 1).

Take `Clc1cccc2c(CCNCc3c[nH]c4ccccc34)c[nH]c12` [Compound 7]: the Ki was 25100 nM on 5-HT7R; 133 nM at 5-HT6R (Ki 5-HT6, Figure 8); 132 nM on 5-HT6R (pKi 5-HT6, Table 1); 631 nM on 5-HT2AR (setting [4]); 11700 nM on D2R [1] (pKi D2, Table 1); 5130 nM on 5-HT1AR (pKi 5-HT1A, Table 1).

As to `Brc1cccc2c(CCNCc3c[nH]c4ccccc34)c[nH]c12` [Compound 8], the Ki is 20400 nM at 5-HT7R; 161 nM at 5-HT6R (Ki 5-HT6, Figure 8); 162 nM at 5-HT6R (pKi 5-HT6, Table 1); 776 nM at 5-HT2AR (setting [4]); 3020 nM on D2R [1] (pKi D2, Table 1); 6030 nM at 5-HT1AR (pKi 5-HT1A, Table 1).

As for `Oc1ccc2[nH]cc(CNCCc3c[nH]c4ccccc34)c2c1` [Compound 9], the Ki was 5130 nM on 5-HT7R; 2240 nM on 5-HT6R (pKi 5-HT6, Table 1); 1950 nM on 5-HT2AR (setting [4]); 7590 nM at D2R [1] (pKi D2, Table 1); 2880 nM on 5-HT1AR (pKi 5-HT1A, Table 1).

Consider `Fc1ccc2[nH]cc(CNCCc3c[nH]c4ccccc34)c2c1` [Compound 10], for which the Ki at 5-HT7R was 4790 nM; on 5-HT6R (pKi 5-HT6, Table 1) it was 407 nM; at 5-HT2AR (setting [4]), 3470 nM; at D2R [1] (pKi D2, Table 1), 8510 nM; on 5-HT1AR (pKi 5-HT1A, Table 1), 490 nM.

On to `Clc1ccc2[nH]cc(CNCCc3c[nH]c4ccccc34)c2c1` [Compound 11], for which the Ki was 3800 nM at 5-HT7R; 513 nM on 5-HT6R (pKi 5-HT6, Table 1); 3240 nM on 5-HT2AR (setting [4]); 2090 nM at D2R [1] (pKi D2, Table 1); 676 nM at 5-HT1AR (pKi 5-HT1A, Table 1).

Turning to `Ic1ccc2[nH]cc(CNCCc3c[nH]c4ccccc34)c2c1` [Compound 12], the Ki is 5130 nM on 5-HT7R; 457 nM on 5-HT6R (pKi 5-HT6, Table 1); 2340 nM at 5-HT2AR (setting [4]); 2090 nM at D2R [1] (pKi D2, Table 1); 490 nM at 5-HT1AR (pKi 5-HT1A, Table 1).

With `Fc1ccc2c(CNCCc3c[nH]c4ccccc34)c[nH]c2c1` [Compound 13], the Ki at 5-HT7R is 18200 nM; at 5-HT6R (Ki 5-HT6, Figure 8), 225 nM; on 5-HT6R (pKi 5-HT6, Table 1) it was 224 nM; at 5-HT2AR (pKi 5-HT2A), 2570 nM; at D2R [1] (Ki D2, Figure 8), 299 nM; on D2R [1] (pKi D2, Table 1), 302 nM. For the same compound, on 5-HT1AR, the Ki is 1350 nM. Also, the results for the Kb at Human Serotonin 5-HT6R and at D2R [2] were 30 nM and 91 nM, respectively. Besides, the EC50 at D2R [2] worked out at 91 nM.

With `Fc1cccc2c(CNCCc3c[nH]c4ccccc34)c[nH]c12` [Compound 16], the Ki on 5-HT7R is 12900 nM; at 5-HT6R (pKi 5-HT6, Table 1), 316 nM; at 5-HT2AR (setting [4]), 1230 nM; on 5-HT1AR (pKi 5-HT1A, Table 1), 5620 nM.

Consider `c1ccc(COc2cccc3c(CNCCc4c[nH]c5ccccc45)c[nH]c23)cc1` [Compound 19], for which the Ki at 5-HT7R was 11200 nM; on 5-HT6R (Ki 5-HT6, Figure 8), 303 nM; on 5-HT6R (pKi 5-HT6, Table 1), 302 nM; at 5-HT2AR (setting [4]), 2290 nM; on D2R [1] (pKi D2, Table 1), 4070 nM; at 5-HT1AR (pKi 5-HT1A, Table 1) it was 741 nM.

Take `COc1ccc2[nH]cc(CCNCc3c[nH]c4c(Cl)cccc34)c2c1` [Compound 20]: the Ki at 5-HT7R was 295 nM; on 5-HT6R (pKi 5-HT6, Table 1), 97.7 nM; on 5-HT2AR (setting [4]), 309 nM; on D2R [1] (pKi D2, Table 1) it was 2340 nM; at 5-HT1AR, 79.4 nM.

Take `COc1ccc2[nH]cc(CCNCc3c[nH]c4cc(Cl)ccc34)c2c1` [Compound 21]: the Ki is 813 nM on 5-HT7R; 52.5 nM at 5-HT6R (pKi 5-HT6, Table 1); 174 nM on 5-HT2AR (setting [4]); 1550 nM on D2R [1] (pKi D2, Table 1); 186 nM at 5-HT1AR (pKi 5-HT1A, Table 1).

For the compound `Clc1ccc2c(CCNCc3c[nH]c4c(Cl)cccc34)c[nH]c2c1` [Compound 22], the Ki was 13200 nM at 5-HT7R; 363 nM at 5-HT6R (pKi 5-HT6, Table 1); 4070 nM at 5-HT2AR (setting [4]); 5010 nM on D2R [1] (pKi D2, Table 1); 5620 nM on 5-HT1AR (pKi 5-HT1A, Table 1).

With `CCn1cc(C(=O)O)c(=O)c2cc(F)c(N3CCNCC3)cc21` [Norfloxacin, norfloxacin, reference compound], the “PAMPA Pe ± SD” value in series [3] was 0.56 10^−6 cm/s.

As for `Cc1cc2c(s1)Nc1ccccc1N=C2N1CCN(C)CC1` [Olanzapine], the Kb with 5-HT6 was […].
